# Counter-ions that a name gives are not always drawn.
# Key:
# [1] = distribution in the body as function of time after intravenous administration, measured by scinticamera; format: in vivo, human; settings: for Time of Appearance in Gallbladder / Time of Appearance in Intestine / Blood T 1/2 / Liver T 1/2 / Maximum Liver Accumulation: approximately 0.25 millicurie per injection; for Blood T 1/2: elimination from blood into liver cells; for Liver T 1/2: elimination from liver cells into bile ducts and gallbladder; for Maximum Liver Accumulation: time of maximum accumulation
# Method: These compounds were tested intravenously on humans. The total quantity of radioactivity per injection of the respectively injected aqueous test solution was approximately 0.25 millicurie in each instance.
# The distribution in the body as function of time after administration was measured by scinticamera in the usual manner.
# [2] = background statement in words; cited from earlier work
"Time of Appearance in Gallbladder ([1]; humans, intravenous) [min]","Time of Appearance in Intestine ([1]; humans, intravenous) [min]","Blood T 1/2 ([1]; humans, intravenous) [min]","Liver T 1/2 ([1]; humans, intravenous) [min]","Maximum Liver Accumulation ([1]; humans, intravenous) [min]","enterohepatic cycle (reabsorption from the intestine into the bloodstream) ([1]; humans, intravenous, in words)","liver passage (from T 1/2 values) ([1]; humans, intravenous, in words)",Compound,"times of appearance in the intestine and gallbladder, compared with B and C ([1]; humans, intravenous, in words)",concomitant gallbladder representation ([1]; patients having a healthy liver),elimination from the liver [2],maximum accumulation in the liver [2]
25.5,14.6,3.22,3.19,16.5,absence of an enterohepatic cycle,markedly faster liver passage,"O=C(COCC(=O)Nc1c(I)cc(I)c(C(=O)O)c1I)Nc1c(I)cc(I)c(C(=O)O)c1I [A, diglycolic acid bis(3-carboxy-2,4,6-triiodoanilide)-131-iodine N-methylglucamine salt]",markedly shorter than in the comparison substances B and C,a concomitant gallbladder representation is obtained,,
45,45,8.14,10.24,30,,,"O=C1OC2(c3cc(I)c(O)c(I)c3Oc3c2cc(I)c(O)c3I)c2c(Cl)c(Cl)c(Cl)c(Cl)c21 [B, tetrachlorotetraiodofluorescein-131-iodine sodium salt]",,,after a longer period of time,after a longer period of time

# Reference: patent publication US3939204A, “Radioactive functional diagnostic agents” (priority 1972, dated 1976)
